Laboratory results reported in patent US20240109891A1, “NOVEL SUBSTITUTED TRICYCLIC AZA-HETEROCYCLES AS SOS1 INHIBITORS” (Viva Star Biosciences (Suzhou) Co., Ltd., priority 2021, published 2024).

Tests used:
[1] = target: T1, KRAS-WT and SOS1 proteins (Homo sapiens, UniProt Q07889); test: KRAS-WT/SOS1 binding assay (HTRF); details: Tag1-SOS1 / Tag2-KRAS-WT, 10 μM GTP, read-out: Activity Data in Kras: SOS1 Assay, Wild Type
T1 construct: purchased Cisbio 63ADK000CB15PEG
T1 sequence (Q07889 1-1333): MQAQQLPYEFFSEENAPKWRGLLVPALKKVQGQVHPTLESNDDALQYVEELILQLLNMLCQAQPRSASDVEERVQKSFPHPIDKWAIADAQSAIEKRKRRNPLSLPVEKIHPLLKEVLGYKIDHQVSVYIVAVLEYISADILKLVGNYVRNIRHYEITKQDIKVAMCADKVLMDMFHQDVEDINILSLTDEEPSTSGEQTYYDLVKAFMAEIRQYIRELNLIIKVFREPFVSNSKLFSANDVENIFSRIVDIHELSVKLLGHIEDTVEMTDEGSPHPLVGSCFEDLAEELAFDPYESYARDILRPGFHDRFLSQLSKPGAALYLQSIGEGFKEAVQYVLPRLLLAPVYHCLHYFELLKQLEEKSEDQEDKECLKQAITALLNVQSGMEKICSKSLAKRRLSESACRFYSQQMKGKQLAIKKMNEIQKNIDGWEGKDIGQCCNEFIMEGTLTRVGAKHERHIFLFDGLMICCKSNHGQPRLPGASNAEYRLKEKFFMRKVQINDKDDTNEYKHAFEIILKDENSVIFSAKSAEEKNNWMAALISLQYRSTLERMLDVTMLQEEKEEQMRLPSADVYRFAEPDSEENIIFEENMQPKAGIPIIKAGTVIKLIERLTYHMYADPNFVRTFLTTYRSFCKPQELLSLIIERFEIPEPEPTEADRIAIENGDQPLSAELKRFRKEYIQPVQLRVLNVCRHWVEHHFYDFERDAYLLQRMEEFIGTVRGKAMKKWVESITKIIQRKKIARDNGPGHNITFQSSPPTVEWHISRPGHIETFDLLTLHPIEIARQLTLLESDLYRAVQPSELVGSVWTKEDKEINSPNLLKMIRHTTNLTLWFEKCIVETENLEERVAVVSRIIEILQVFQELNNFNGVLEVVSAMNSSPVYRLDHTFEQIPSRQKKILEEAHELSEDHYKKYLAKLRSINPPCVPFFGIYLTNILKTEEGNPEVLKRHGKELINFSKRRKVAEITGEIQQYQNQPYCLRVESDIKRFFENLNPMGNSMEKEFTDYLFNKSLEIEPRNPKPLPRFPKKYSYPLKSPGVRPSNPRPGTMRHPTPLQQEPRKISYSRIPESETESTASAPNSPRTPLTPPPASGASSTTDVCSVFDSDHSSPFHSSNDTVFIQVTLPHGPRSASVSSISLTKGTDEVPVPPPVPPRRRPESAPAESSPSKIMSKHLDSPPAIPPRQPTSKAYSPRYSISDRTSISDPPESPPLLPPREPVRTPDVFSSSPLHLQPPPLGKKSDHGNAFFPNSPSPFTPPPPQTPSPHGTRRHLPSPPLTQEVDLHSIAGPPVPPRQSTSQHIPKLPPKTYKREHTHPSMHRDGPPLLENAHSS
Experimental: (§1) KRAS-WT (or G12C/G12D/G12V)/SOS1 Binding Assay
(§2) Low IC50 values are indicative of high potency of the SOS1 inhibitor compounds in this assay setting.
(§3) The KRAS-WT (or G12C/G12D/G12V)/SOS1 binding assay is performed using an assay kit (Cisbio, Cat #63ADK000CB15PEG or 63ADK000CB16PEG/63ADK000CB17PEG/63ADK000CB18PEG) according to the procedure recommended by the manufacturer. • 1) Thaw and prepare the working solution of Tag1-SOS1 protein and Tag2-KRAS-WT (or G12C/G12D/G12V) protein with final concentration of 10 μM GTP (Sigma, Cat #V900868). • 2) Thaw and prepare the working solution of anti-Tag1-Tb^3+ anti-Tag2-XL665. • 3) Dispense 2 μL of serially diluted compound, 4 μL of Tag1-SOS1 protein and 4 μL of Tag2-KRAS-WT (or G12C/G12D/G12V) protein with GTP into a ProxiPlate-384 Plus, white 384-shallow well microplate (PerkinElmer, Cat #6008280). • 4) Incubate the plate for 15 minutes at room temperature. • 5) Dispense 10 μL of pre-mixed anti-Tag1-Tb^3+ and anti-Tag2-XL665 into the plate. • 6) Seal the plate and incubate for 2 hours at room temperature. • 7) Remove the plate sealer and read on PHERAstar FS (BMG LABTECH, PHERAstar FS). • 8) Calculate the ratio of the acceptor and donor emission signals for each individual well using the following equation.
(§4) [formula] • 9) IC50 values are fitted and calculated by HTRF signal values and log of compound concentrations to nonlinear regression [Log (inhibitor) vs. Response−Variable Slope (four parameters)] using the GraphPad Prism 8.0.

[2] = target: T2, KRAS G12D and SOS1 proteins (Homo sapiens, UniProt Q07889); test: KRAS-G12D/SOS1 binding assay (HTRF); details: Tag1-SOS1 / Tag2-KRAS G12D, 10 μM GTP
T2 construct: purchased Cisbio 63ADK000CB17PEG
T2 sequence (Q07889 1-1333): T1 sequence (Q07889 1-1333)
Experimental: as §1, §2, §3, §4

| SMILES | IC50 [1] | IC50 [2] |
| --- | --- | --- |
| CC(=O)N1CCC(Oc2cc3c(N[C@H](C)c4cccc5c4CCC5(F)F)nc(C)nc3c3cnn(C)c23)CC1 [Example 40, (R)-1-(4-((4-((1-(1,1-difluoro-2,3-dihydro-1H-inden-4-yl)ethyl)amino)-2,7-dimethyl-7H-pyrazolo[3,4-h]quinazolin-6-yl)oxy)piperidin-1-yl)ethan-1-one] | < 100 nM | < 100 nM |
| Cc1nc(N[C@H](C)c2cccc(C(F)(F)CO)c2)c2cc(O[C@H]3CCN(C)C3)c3c(cnn3C)c2n1 [Example 41, 2-(3-((R)-1-((2,7-dimethyl-6-(((S)-1-methylpyrrolidin-3-yl)oxy)-7H-pyrazolo[3,4-h]quinazolin-4-yl)amino)ethyl)phenyl)-2,2-difluoroethan-1-ol] | < 100 nM | < 100 nM |
| Cc1nc(N[C@H](C)c2cccc(C(F)(F)CO)c2)c2cc(N3CCC(O)C3)c3c(cnn3C)c2n1 (stereo partly drawn) [Example 42, 1-(4-{[(1R)-1-[3-(1,1-difluoro-2-hydroxyethyl)phenyl]ethyl]amino}-2,7-dimethyl-7H-pyrazolo[3,4-h]quinazolin-6-y)pyrrolidin-3-ol] | < 100 nM | < 100 nM |
| Cc1nc(N[C@H](C)c2cccc(C(F)(F)CO)c2)c2cc(N3CC[C@H](O)C3)c3c(cnn3C)c2n1 [Example 43, (3S)-1-(4-{[(1R)-1-[3-(1,1-difluoro-2-hydroxyethyl)phenyl]ethyl]amino}-2,7-dimethyl-7H-pyrazolo[3,4-h]quinazolin-6-yl)pyrrolidin-3-ol] | < 100 nM | < 100 nM |
| Cc1nc(N[C@H](C)c2cccc(C(F)(F)CO)c2)c2cc(N3CC[C@@H](O)C3)c3c(cnn3C)c2n1 [Example 44, (3R)-1-(4-{[(1R)-1-[3-(1,1-difluoro-2-hydroxyethyl)phenyl]ethyl]amino}-2,7-dimethyl-7H-pyrazolo[3,4-h]quinazolin-6-yl)pyrrolidin-3-ol] | < 100 nM | < 100 nM |
| COc1cc2c(cc1C1CCN(C(C)=O)CC1)c(N[C@H](C)c1cccc3c1CCC3(F)F)nc1ccnn12 [Example 52, (R)-1-(4-(5-((1-(1,1-difluoro-2,3-dihydro-1H-inden-4-yl)ethyl)amino)-8-methoxypyrazolo[1,5-a]quinazolin-7-yl)piperidin-1-yl)ethanone] | 100 to 500 nM | 100 to 500 nM |
| COc1cc2c(cc1C1CCN(S(C)(=O)=O)CC1)c(N[C@H](C)c1cccc3c1CCC3(F)F)nc1ccnn12 [Example 53, (R)-N-(1-(1,1-difluoro-2,3-dihydro-1H-inden-4-yl)ethyl)-8-methoxy-7-(1-(methylsulfonyl)piperidin-4-yl)pyrazolo[1,5-a]quinazolin-5-amine] | 100 to 500 nM | 100 to 500 nM |
| COc1cc2c(cc1O[C@H]1CCOC1)c(N[C@H](C)c1cccc(C(F)(F)F)c1)nc1ccnn12 [Example 54, 8-methoxy-7-[(3 S)-oxolan-3-yloxy]-N-[(1R)-1-[3-(trifluoromethyl)phenyl]ethyl]pyrazolo[1,5-α]quinazolin-5-amine] | 500 to 5000 nM | 500 to 5000 nM |
| COc1cc2c(cc1O[C@H]1CCOC1)c(N[C@H](C)c1cc(N)cc(C(F)(F)F)c1)nc1ccnn12 [Example 55, N-[(1R)-1-[3-amino-5-(trifluoromethyl)phenyl]ethyl]-8-methoxy-7-[(3S)-oxolan-3-yloxy]pyrazolo[1,5-a]quinazolin-5-amine] | 100 to 500 nM | 100 to 500 nM |
| COc1cc2c(cc1O[C@H]1CCOC1)c(N[C@H](C)c1cccc(C(F)(F)F)c1)nc1cncn12 [Example 56, 8-methoxy-7-(((S)-tetrahydrofuran-3-yl)oxy)-N—((R)-1-(3-(trifluoromethyl)phenyl)ethyl)imidazo[1,5-a]quinazolin-5-amine] | 500 to 5000 nM | 500 to 5000 nM |
| COc1cc2c(cc1O[C@H]1CCOC1)c(N[C@H](C)c1cc(N)cc(C(F)(F)F)c1)nc1cncn12 [Example 57, N—((R)-1-(3-amino-5-(trifluoromethyl)phenyl)ethyl)-8-methoxy-7-(((S)-tetrahydrofuran-3-yl)oxy)imidazo[1,5-a]quinazolin-5-amine] | 100 to 500 nM | 100 to 500 nM |
| COc1cc2c(cc1O[C@H]1CCOC1)c(N[C@H](C)c1cccc(C(F)(F)F)c1)nc1nccn12 [Example 58, 8-methoxy-7-(((S)-tetrahydrofuran-3-yl)oxy)-N—((R)-1-(3-(trifluoromethyl)phenyl)ethyl)imidazo[1,2-a]quinazolin-5-amine] | < 100 nM | < 100 nM |
| C[C@@H](Nc1nc2ccnn2c2cc(=O)n(C3(C)CC3)cc12)c1cccc(C(F)(F)CO)c1 [Example 61, (R)-5-((1-(3-(1,1-difluoro-2-hydroxyethyl)phenyl)ethyl)amino)-7-(1-methylcyclopropyl)pyrazolo[1,5-a]pyrido[3,4-e]pyrimidin-8(7H)-one] | < 100 nM | < 100 nM |
| C[C@@H](Nc1nc2ccnn2c2cc(=O)n(C3(C)CC3)cc12)c1cccc2c1CCC2(F)F [Example 62, (R)-5-((1-(1,1-difluoro-2,3-dihydro-1H-inden-4-yl)ethyl)amino)-7-(1-methylcyclopropyl)pyrazolo[1,5-a]pyrido[3,4-e]pyrimidin-8(7H)-one] | < 100 nM | < 100 nM |
| Cc1c([C@@H](C)Nc2nc3ccnn3c3cc(=O)n(C4(C)CC4)cc23)cccc1C(F)(F)F [Example 63, (R)-5-((1-(2-methyl-3-(trifluoromethyl)phenyl)ethyl)amino)-7-(1-methylcyclopropyl)pyrazolo[1,5-a]pyrido[3,4-e]pyrimidin-8(7H)-one] | < 100 nM | < 100 nM |
| C[C@@H](Nc1nc2ccnn2c2cc(=O)n(C3(C)CC3)cc12)c1cccc(C(C)(F)F)c1F [Example 64, (R)-5-((1-(3-(1,1-difluoroethyl)-2-fluorophenyl)ethyl)amino)-7-(1-methylcyclopropyl)pyrazolo[1,5-a]pyrido[3,4-e]pyrimidin-8(7H)-one] | < 100 nM | < 100 nM |
| C[C@@H](Nc1nc2ccnn2c2cc(=O)n(C3(C)CC3)cc12)c1cccc(C(F)(F)F)n1 [Example 65, (R)-7-(1-methylcyclopropyl)-5-((1-(6-(trifluoromethyl)pyridin-2-yl)ethyl)amino)pyrazolo[1,5-a]pyrido[3,4-e]pyrimidin-8(7H)-one] | 500 to 5000 nM | 500 to 5000 nM |
| C[C@@H](Nc1nc2ccnn2c2cc(=O)n(C3CC(F)(F)C3)cc12)c1cccc(C(F)(F)CO)c1 [Example 66, (R)-5-((1-(3-(1,1-difluoro-2-hydroxyethyl)phenyl)ethyl)amino)-7-(3,3-difluorocyclobutyl)pyrazolo[1,5-a]pyrido[3,4-e]pyrimidin-8(7H)-one] | < 100 nM | < 100 nM |
